Experimental data from PubChem BioAssay (NCI).
“And” between values parts separate entries of the source, which are not always exact repeats. Equal entries are not always repeated.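 These data come from cells grown in 96-well plates and exposed to compound for 48 hours at five concentrations. At the GI50, growth is halved. TGI is the concentration that stops growth completely.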

How the values were obtained:
Assay in all cases: NCI-60 cell line screen, 48 h
HCT-15 colon = tested on: HCT-15 colon
SNB-78 CNS = tested on: SNB-78 CNS
HCT-116 colon = tested on: HCT-116 colon
M19-MEL melanoma = tested on: M19-MEL melanoma
HT29 colon = tested on: HT29 colon
NCI-H460 lung = tested on: NCI-H460 lung
KM20L2 colon = tested on: KM20L2 colon
XF 498 CNS = tested on: XF 498 CNS
HS 578T breast = tested on: HS 578T breast
MDA-MB-435 = tested on: MDA-MB-435

| Structure (SMILES) | TGI (HCT-15 colon) | TGI (SNB-78 CNS) | TGI (HCT-116 colon) | TGI (M19-MEL melanoma) | TGI (HT29 colon) | TGI (NCI-H460 lung) | TGI (KM20L2 colon) | TGI (XF 498 CNS) | GI50 (HCT-15 colon) | GI50 (XF 498 CNS) | GI50 (SNB-78 CNS) | GI50 (HS 578T breast) | TGI (HS 578T breast) | GI50 (MDA-MB-435) | TGI (MDA-MB-435) | GI50 (HCT-116 colon) | GI50 (M19-MEL melanoma) | GI50 (HT29 colon) | GI50 (NCI-H460 lung) | GI50 (KM20L2 colon) |
| --- | --- | --- | --- | --- | --- | --- | --- | --- | --- | --- | --- | --- | --- | --- | --- | --- | --- | --- | --- | --- |
| O=C1NC(=O)C2C1C1C=C3c4ccccc4N(c4ccccc4)C32[C@H]2C(=O)NC(=O)[C@@H]12 (some centres not stated) | > 100 µM | > 100 µM | > 100 µM | > 100 µM | > 100 µM | > 100 µM | > 100 µM |  |  |  |  |  |  |  |  |  |  |  |  |  |
| CCc1nc2ccccc2c(=O)n1/N=C(\N=Nc1ccc(Cl)cc1)c1ccccc1 | > 100 µM | 71.1 µM | 64.5 µM | > 100 µM | 36.9 µM | > 100 µM | 27.7 µM |  |  |  |  |  |  |  |  |  |  |  |  |  |
| C#CCn1c(=O)c2cccnc2n(CC#C)c1=O | > 100 µM | > 100 µM | > 100 µM |  | > 100 µM | > 100 µM |  | > 100 µM |  |  |  |  |  |  |  |  |  |  |  |  |
| O=C(O)CCC1CCc2cccc(OCC(=O)O)c2C1=O (configuration not stated) | > 100 µM | > 100 µM | > 100 µM | > 100 µM | > 100 µM | > 100 µM | > 100 µM | > 100 µM |  |  |  |  |  |  |  |  |  |  |  |  |
| CC(C)(CN1CCCCC1)C(=O)CC(SCCN)c1ccc(Cl)cc1 (configuration not stated) | 4.53 µM | 8.9 µM | 7.61 µM | 7.39 µM | 5.07 µM | 5.43 µM | 5.43 µM | 4.1 µM |  |  |  |  |  |  |  |  |  |  |  |  |
| O=C(O)c1ccc(C(=O)O)c(C(=O)O)c1.[NH-]C1CCCCC1[NH-].[Pt+2] | 33.7 µM | 99.9 µM | 47.3 µM | 46 µM | 54.9 µM | 19.1 µM | 27.7 µM | 16.5 µM | 2.05 µM | 1.8 µM | 24.6 µM | 13.5 µM | 84.5 µM | 3.83 µM | 30.4 µM | 1.07 µM | 1.41 µM | 0.998 µM | 0.889 µM | 0.768 µM |
| CCCCN(CCCC)CC(C(=O)Nc1ccc([N+](=O)[O-])cc1[N+](=O)[O-])/C(C)=N\NC(=O)C[N+](C)(C)C (configuration not stated) | > 100 µM | > 100 µM | > 100 µM | > 100 µM | > 100 µM | > 100 µM | > 100 µM | > 100 µM |  |  |  |  |  |  |  |  |  |  |  |  |
| Cc1ccc(NC(=O)/C(=N\NC(N)=S)C(C#N)c2ccccc2C)cc1C (configuration not stated) | > 100 µM | > 100 µM | > 100 µM | > 100 µM | > 100 µM | > 100 µM | > 100 µM | > 100 µM |  |  |  |  |  |  |  |  |  |  |  |  |
| O=[N+]([O-])c1ccc(/C(Cl)=C/c2ccc(/C=C(\Cl)c3ccc([N+](=O)[O-])cc3[N+](=O)[O-])cc2)c([N+](=O)[O-])c1 | > 100 µM | > 100 µM | > 100 µM | > 100 µM | > 100 µM | > 100 µM |  |  |  |  |  |  |  |  |  |  |  |  |  |  |
| N#CC(/C(=N/NC(N)=S)C(=O)Nc1cccc(Cl)c1)c1ccccc1 (configuration not stated) | > 100 µM |  | > 100 µM | > 100 µM | > 100 µM | > 100 µM | > 100 µM | > 100 µM |  |  |  |  |  |  |  |  |  |  |  |  |
| NC(=N\N=C/c1ccc(Cl)cc1Cl)/C(N)=N\N=C/c1ccc(Cl)cc1Cl | > 100 µM |  | > 100 µM |  | > 100 µM | > 100 µM |  |  | > 100 µM |  |  | 3.39 µM | > 30.4 µM | > 100 µM | > 100 µM | 1.19 µM |  | > 100 µM | 0.795 µM |  |
| O=C(O)c1ccc(Oc2nc3ccccc3s2)cc1 | > 100 µM |  | > 100 µM |  | > 100 µM | > 100 µM |  |  |  |  |  |  | > 100 µM |  | > 100 µM |  |  |  |  |  |
| O=Cc1ccc(-c2ccc(-c3ccc(C=O)o3)[se]2)o1 | > 100 µM |  | > 100 µM |  | > 100 µM | > 100 µM |  |  | > 80 µM |  |  | > 100 µM | > 100 µM | > 100 µM | > 100 µM | > 100 µM |  | > 100 µM | > 100 µM |  |
| CCC(C)CC(C)C(=O)c1c(O)ccn(O)c1=O (configuration not stated) | > 100 µM |  | > 100 µM |  | > 100 µM | 11.6 µM |  |  | 0.46 µM |  |  | 3.08 µM | > 100 µM | 1.87 µM | > 100 µM | 1.08 µM |  | 27.2 µM | 0.447 µM |  |
| FC(F)(F)c1cc(-c2ncn(/C=C\c3nnco3)n2)cc(C(F)(F)F)c1 | > 33.4 µM |  | > 41.9 µM |  | 48.2 µM |  |  |  | 0.133 µM |  |  | 0.195 µM | 8.28 µM | 0.0581 µM | 1.51 µM | 0.0621 µM |  | 0.12 µM | 0.0384 µM |  |
| CC(=O)N(CCN1C(=O)c2ccccc2C1=O)CCN1C(=O)c2ccccc2C1=O | > 100 µM | > 100 µM | > 100 µM | > 100 µM |  | > 100 µM | > 100 µM | > 100 µM |  |  |  |  |  |  |  |  |  |  |  |  |
| NC(CO)c1ccc(OCc2ccccc2)cc1 (configuration not stated) | > 100 µM | > 100 µM | > 100 µM | > 100 µM | > 100 µM | > 100 µM | > 100 µM | > 100 µM |  |  |  |  |  |  |  |  |  |  |  |  |
| CCOC(=O)Nc1ccc2c(c1)N(C(=O)CCN(CC)CC)c1ccccc1S2 | > 79.5 µM and 99.4 µM |  | > 31.6 µM and 39.9 µM | > 71.1 µM and 124 µM | 33.9 µM and 96.4 µM | 57.1 µM | 38.7 µM and 39.7 µM | 33.4 µM and 10 µM | 35.7 µM | 0.626 µM | 41 µM |  |  |  |  | 12.5 µM | 56.2 µM | 29.6 µM |  | 13.9 µM |
